Test results from paper PMC5974752, “Bax/Tubulin/Epithelial-Mesenchymal Pathways Determine the Efficacy of Silybin Analog HM015k in Colorectal Cancer Cell Growth and Metastasis” (Frontiers in Pharmacology, 2018).
Where two headings read alike, the source gives them in different places.

Legend:
HCT116 cells = assay: Colony formation assay; assay type: cell-based, human; conditions: 2 and 4 μM, 12 h incubation, colonies 10–14 days, vs vehicle control
Protocol: In this assay, HCT116 cells were seeded in 6 well plates at a density of 250,000 cells/plate and allowed to grow overnight. Compounds 15j and 15k (0, 2 or 4 μM) were added the following day. After 12 h of incubation, the medium was discarded and cells were trypsinized with 0.25% trypsin, 2.21 mM EDTA, 1X, harvested, counted and reseeded in 6 well plates at a low density (500 cell/well). The cells were allowed to form colonies for 10–14 days at 37°C, with the medium being changed every other day. Subsequently, methanol was used to fix the colonies formed in each plate, followed by dyeing the colonies with 0.1% crystal violet dye for 30 min. Finally, colonies were viewed and counted under an EVOS microscope (Themo Fisher Scientific, Wayne, MI, USA). The colony formation rate equation was applied for each compound: Colony formation rate = number of colonies/number of seeded cells × 100 %.

CHO = assay: MTT assay, normal cell line; assay type: cell-based, Chinese hamster; conditions: Cricetulus griseus, 72 h incubation, mean ± SD of three experiments
Protocol: (§1) The 3-(4,5-dimethylthiazol-2-yl)-2,5-diphenyltetrazolium bromide (MTT) assay was used to determine the sensitivity of the different CRC cells to the novel silybin derivatives (Hussein et al., [2017]; Manivannan et al., [2017]). The cells were seeded at a density of 4,000–5,000 cells/well in 96 well plates and incubated with serial dilutions of the compounds (0, 0.1, 0.3, 1, 3, 10, 30, and 100 μM). The MTT dye (4 mg/ml) was added after 72 h of incubation and incubated with the cells for an additional 4 h at 37°C. Following incubation, the media was discarded and the formazan crystals were dissolved by adding 100 μL of DMSO to each well. A DTX 880 multimode detector (Beckman Coulter Life, Indianapolis IN, USA) was used to determine the absorbance readings at a wavelength of 570 nm. The IC50 values were determined based on 3 separate experiments, with each experiment done in triplicate. The selectivity of the compounds was determined by comparing their cytotoxicity for CRC to normal epithelial cell lines (CHO, and CRL1459).

β-catenin = assay: Western blot in HCT116 cells (nuclear); assay type: cell-based, human; conditions: 4 μM, p < 0.001 vs control
Protocol: (§2) HCT116 cells were lysed to obtain cytoplasmic and nuclear protein fractions, according to the protocol used in previous publications (Alhadidi and Shah, [2017]). Briefly, the cells were seeded in and incubated with 15k for overnight at 4μM. The cells were washed using ice-cold PBS and scraped using a cell scraper and collected in 15ml tubes. The cells were centrifuged and the PBS was discarded and replaced with 400 μl of buffer A (10 mM HEPES, pH 7.9, 0.1 mM EDTA, 0.1 mM EGTA, 10 mM KCl, 1 mM dithiothreitol, and 0.5 mM phenylmethylsulfonyl fluoride) in each tube. The cells were allowed to swell under in the buffer for 15 min on ice. Subsequently, 0.1% Nonidet P-40 was added to each suspension for 1 min to disturb the plasma membrane. The nuclei were precipitated by centrifugation at 13,000 rpm for 1 min at 4°C. The cytoplasmic proteins were collected in the supernatant and stored at −80°C. Two hundred μl of Buffer B (20 mM HEPES, pH 7.9, 1 mM EDTA, 1 mM EGTA, 400 mM NaCl, 1 mM dithiothreitol, and 1 mM phenylmethylsulfonyl fluoride) was added to the pellets and left for 30 min on ice with periodic mixing. […] The bicinchoninic acid (BCA) quantification assay was used to determine the concentration of protein in the cell extracts. […] Finally, proteins were quantified using the image J software. Data were calculated as ratios to β-actin.

PARP = assay: Western blot in HCT116 cells (nuclear fraction); assay type: cell-based, human; conditions: 4 μM, vs control
Protocol: as §2

HCT116 cell = assay: Cell morphology (EMT reversal); assay type: cell-based, human; conditions: HCT116 after incubation with 15k
Protocol: The aberrant, over-activation of embryonic signaling pathways, including Wnt/β-catenin/epithelial-mesenchymal transition (EMT), is involved in the development, progression, metastasis, and resistance of CRC (Du and Shim, [2016]). […] To test this hypothesis, the morphology of HCT116 cell was observed following incubation with 15k. […] We then determined the efficacy of compound 15k on the expression of (1) β-catenin; (2) E-cadherin, and (3) N-cadherin in CRC cells.

HCT116 [1] = assay: Cell cycle analysis (PI, flow cytometry); assay type: cell-based, human; conditions: 0, 2 or 4 μM, 12 h, data not shown
Protocol: Cell cycle analysis was performed as described previously (Pozarowski and Darzynkiewicz, [2004]). Briefly, a 6 well plate was used for the seeding of HCT116 at 1 × 10^6 cells/well. The next day, 15j and 15k (0, 2, or 4 μM) were added and incubated with the seeded cells. After 12 h, the cells were trypsinzed with 0.25% trypsin, 2.21 mM EDTA, 1X, washed, counted and resuspended in 0.5 ml of ice cold PBS. PI stain was added to each suspension for at least 15 min to stain the DNA. The cell cycle analysis and cell distribution for each phase was measured using a BD Accuri™ C6 flow cytometer (BD Biosciences, Becton-Dickinson, San Jose, CA, USA) and analyzed using FCS express 5 plus De Novo software (Glendale, CA, USA).

HCT116 [2] = assay: MTT assay; assay type: cell-based, human; conditions: Homo sapiens, HCT-116, MTT
Protocol: as §1

IC50 (HCT116 [2]; 72 h incubation, mean ± SD of three experiments, read-out: IC50 ± SD, Colon HCT116): 900 nM
IC50 (HCT116 [2]; comparison with knockout cells, read-out: IC50, HCT116 wild type): 890 nM
Compound: O=C(/C=C/c1cccc(OCc2ccccc2)c1)c1ccc(O)cc1 [Compound 15k]
colony formation rate (HCT116 cells): decreased significantly
IC50 (CHO): 8100 ± 1200 nM
nuclear β-catenin full-length protein (p1 and p2) (β-catenin): induced the cleavage of the full-length protein
total PARP (PARP): significantly reduced
cell morphology (HCT116 cell): significantly changed the morphology of the cells from mesenchymal to a more epithelial-like appearance
effect on the cell cycle (HCT116 [1]): significant concentration-dependent increase in the number of cells in the G2 and S phases
